Reference: US11976083B2, “Inhibitors of peptidylarginine deiminases” (Gilead Sciences, Inc., priority 2020, dated 2024)

Biological target: T1, human PAD4 (Homo sapiens, UniProt Q9UM07)
T1 construct: human PAD4 (NM_012387), A2-P663, was PCR amplified; His-SUMO (N, cleaved yes); made in house; host or cells: E. coli BL21(DE3)
Experiment: In vitro PAD4 BAEE biochemical assay
Conditions: BAEE substrate 3 mM, 5 nM PAD4, 2 mM calcium chloride; geometric mean of multiple experiments
Procedure, shortened: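 Ammonia produced by BAEE deimination (3 mM substrate, 2 h, 25 °C) was read as fluorescent isoindole after o-phthalaldehyde/DTT derivatization, ex 405 nm/em 535 nm. Human PAD4 at 5 nM final, 2 mM calcium, pH 7.6 MOPS; compound preincubated 30 min. IC50s, normalized to BB-Cl-Amidine and DMSO controls, were geometric-mean averaged.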

T1 sequence (Q9UM07 2-663): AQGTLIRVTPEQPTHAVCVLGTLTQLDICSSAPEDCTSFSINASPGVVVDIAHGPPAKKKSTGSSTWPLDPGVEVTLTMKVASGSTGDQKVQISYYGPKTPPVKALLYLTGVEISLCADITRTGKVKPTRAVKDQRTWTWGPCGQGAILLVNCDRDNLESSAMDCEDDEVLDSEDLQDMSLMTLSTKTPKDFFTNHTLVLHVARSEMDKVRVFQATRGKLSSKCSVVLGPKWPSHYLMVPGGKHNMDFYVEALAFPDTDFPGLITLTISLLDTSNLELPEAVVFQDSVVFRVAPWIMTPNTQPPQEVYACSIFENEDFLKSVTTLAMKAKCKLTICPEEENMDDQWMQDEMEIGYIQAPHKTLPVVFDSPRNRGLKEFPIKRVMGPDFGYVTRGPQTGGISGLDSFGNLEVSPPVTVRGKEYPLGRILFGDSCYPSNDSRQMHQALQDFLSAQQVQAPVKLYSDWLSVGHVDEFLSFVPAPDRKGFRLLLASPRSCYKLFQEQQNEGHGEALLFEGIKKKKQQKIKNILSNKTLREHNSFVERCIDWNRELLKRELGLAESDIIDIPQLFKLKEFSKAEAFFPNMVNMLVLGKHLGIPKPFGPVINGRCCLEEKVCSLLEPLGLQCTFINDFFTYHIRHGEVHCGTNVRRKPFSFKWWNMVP

Row | SMILES | IC50 [nM]
1 | COc1cc(C(=O)N2[C@H]3CC[C@@H]2[C@H](N)C3)cc2nc(-c3cc4ccc5nc4n3CCCCCCCC3(CCC3)C(=O)N[C@@H]5C)n(C)c12 [Example 280] | 64
2 | COc1cc(C(=O)N2[C@H]3CC[C@@H]2[C@H](N)C3)cc2nc(-c3cc4ccc5nc4n3CCCCCCCC3(CC3)C(=O)N[C@@H]5C)n(C)c12 [Example 281, (12~{R})-18-[5-[(1~{R},2~{R},4~{S})-2-amino-7-azabicyclo[2.2.1]heptane-7-carbonyl]-7-methoxy-1-methyl-benzimidazol-2-yl]-12-methyl-spiro[1,11,20-triazatricyclo[11.5.2.0^{16,19}]icosa-13(20),14,16(19),17-tetraene-9,1′-cyclopropane]-10-one] | 88
3 | COc1cc(C(=O)N2CCC[C@@H](N)C2)cc2nc(-c3cc4ccc5nc4n3CCCCCCCC(=O)N[C@@H]5C)n(C)c12 [Example 282, (11~{R})-17-[5-[(3~{R})-3-aminopiperidine-1-carbonyl]-7-methoxy-1-methyl-benzimidazol-2-yl]-11-methyl-1,10,19-triazatricyclo[10.5.2.0^{15,18}]nonadeca-12(19),13,15(18),16-tetraen-9-one] | 13
4 | COc1cc(C(=O)N2CCC[C@@H](N)C2)cc2nc(-c3cc4ccc5nc4n3CCCCCCCCC(=O)N[C@@H]5C)n(C)c12 [Example 283, (12~{R})-18-[5-[(3~{R})-3-aminopiperidine-1-carbonyl]-7-methoxy-1-methyl-benzimidazol-2-yl]-12-methyl-1,11,20-triazatricyclo[11.5.2.0^{16,19}]icosa-13(20),14,16(19),17-tetraen-10-one] | 13
5 | COc1cc(C(=O)N2CCC[C@@H](N)C2)cc2nc(-c3cc4ccc5nc4n3CCCCCCCCCC(=O)N[C@@H]5C)c(C)n12 [Example 284, (13~{R})-19-[7-[(3~{R})-3-aminopiperidine-1-carbonyl]-5-methoxy-3-methyl-imidazo[1,2-a]pyridin-2-yl]-13-methyl-1,12,21-triazatricyclo[12.5.2.0^{17,20}]henicosa-14(21),15,17(20),18-tetraen-11-one] | 52
6 | COc1cc(C(=O)N2[C@H]3CC[C@@H]2[C@H](N)C3)cc2nc(-c3cc4ccc5nc4n3CCCCCCCC(=O)N[C@@H]5C)n(C)c12 [Example 285, (11~{R})-17-[5-[(1~{R},2~{R},4~{S})-2-amino-7-azabicyclo[2.2.1]heptane-7-carbonyl]-7-methoxy-1-methyl-benzimidazol-2-yl]-11-methyl-1,10,19-triazatricyclo[10.5.2.0^{15,18}]nonadeca-12(19),13,15(18),16-tetraen-9-one] | 7
7 | COc1cc(C(=O)N2[C@H]3CC[C@@H]2[C@H](N)C3)cc2nc(-c3cc4ccc5nc4n3CCCCCCCCC(=O)N[C@@H]5C)n(C)c12 [Example 286, (12~{R})-18-[5-[(1~{R},2~{R},4~{S})-2-amino-7-azabicyclo[2.2.1]heptane-7-carbonyl]-7-methoxy-1-methyl-benzimidazol-2-yl]-12-methyl-1,11,20-triazatricyclo[11.5.2.0^{16,19}]icosa-13(20),14,16(19),17-tetraen-10-one] | 9
8 | COc1cc(C(=O)N2[C@H]3CC[C@@H]2[C@H](N)C3)cc2nc(-c3cc4ccc5nc4n3CCCCCCCCCC(=O)N[C@@H]5C)c(C)n12 [Example 287, (13~{R})-19-[7-[(1~{R},2~{R},4~{S})-2-amino-7-azabicyclo[2.2.1]heptane-7-carbonyl]-5-methoxy-3-methyl-imidazo[1,2-a]pyridin-2-yl]-13-methyl-1,12,21-triazatricyclo[12.5.2.0^{17,20}]henicosa-14(21),15,17(20),18-tetraen-11-one] | 55
9 | COc1cc(C(=O)N2C[C@H]3CC[C@@H]2[C@@H]3N)cc2nc(-c3cc4ccc5nc4n3CCCCCCCC(=O)N[C@@H]5C)n(C)c12 [Example 288, (11~{R})-17-[5-[(1~{R},4~{R},7~{R})-7-amino-2-azabicyclo[2.2.1]heptane-2-carbonyl]-7-methoxy-1-methyl-benzimidazol-2-yl]-11-methyl-1,10,19-triazatricyclo[10.5.2.0^{15,18}]nonadeca-12(19),13,15(18),16-tetraen-9-one] | 36
10 | COc1cc(C(=O)N2C[C@H]3CC[C@@H]2[C@@H]3N)cc2nc(-c3cc4ccc5nc4n3CCCCCCCCC(=O)N[C@@H]5C)n(C)c12 [Example 289, (12~{R})-18-[5-[(1~{R},4~{R},7~{R})-7-amino-2-azabicyclo[2.2.1]heptane-2-carbonyl]-7-methoxy-1-methyl-benzimidazol-2-yl]-12-methyl-1,11,20-triazatricyclo[11.5.2.0^{16,19}]icosa-13(20),14,16(19),17-tetraen-10-one] | 25
11 | COc1cc(C(=O)N2C[C@H]3CC[C@@H]2[C@@H]3N)cc2nc(-c3cc4ccc5nc4n3CCCCCCCCCC(=O)N[C@@H]5C)c(C)n12 [Example 290, (13~{R})-19-[7-[(1~{R},4~{R},7~{R})-7-amino-2-azabicyclo[2.2.1]heptane-2-carbonyl]-5-methoxy-3-methyl-imidazo[1,2-a]pyridin-2-yl]-13-methyl-1,12,21-triazatricyclo[12.5.2.0^{17,20}]henicosa-14(21),15,17(20),18-tetraen-11-one] | 221
12 | COc1cc(C(=O)N2CCC[C@@H](N)C2)cc2nc(-c3cc4ccc5nc4n3CCCCCCCCOC5C)n(C)c12 (stereo partly drawn) [Example 291, [(3˜{R})-3-amino-1-piperidyl]-[7-methoxy-1-methyl-2-(11-methyl-10-oxa-1,19-diazatricyclo[10.5.2.0^{15,18}]nonadeca-12(19),13,15(18),16-tetraen-17-yl)benzimidazol-5-yl]methanone] | 335
13 | COc1cc(C(=O)N2CCC[C@@H](N)C2)cc2nc(-c3cc4ccc5nc4n3C[C@H]3C[C@@H]3CCCC(C)(C)C(=O)N[C@@H]5C)n(C)c12 [Example 292, (3~{S),5~{S},12~{R})-18-[5-[(3~{R})-3-aminopiperidine-1-carbonyl]-7-methoxy-1-methyl-benzimidazol-2-yl]-9,9,12-trimethyl-1,11,20-triazatetracyclo[11.5.2.0^{3,5}.0^{16,19}] icosa-13(20),14,16(19),17-tetraen-10-one] | 53
14 | COc1cc(C(=O)N2CCC[C@@H](N)C2)cc2nc(-c3cc4ccc5nc4n3CCCCCCNC(=O)CO5)c(C)n12 [Example 293, 17-[7-[(3˜{R})-3-aminopiperidine-1-carbonyl]-5-methoxy-3-methyl-imidazo[1,2-a]pyridin-2-yl]-11-oxa-1,8,19-triazatricyclo[10.5.2.0^{15,18}]nonadeca-12(19),13,15(18),16-tetraen-9-one] | 548
15 | COc1cc(C(=O)N[C@H]2CNCCC2(F)F)cc2nc(-c3cc4ccc5nc4n3CCCCCCC(C)(C)C(=O)N[C@@H]5C)n(C)c12 [Example 294, ~{N}-[(3~{S})-4,4-difluoro-3-piperidyl]-7-methoxy-1-methyl-2-[(11~{R})-8,8,11-trimethyl-9-oxo-1,10,19-triazatricyclo[10.5.2.0^{15,18}]nonadeca-12(19),13,15(18),16-tetraen-17-yl]benzimidazole-5-carboxamide] | 275
16 | COc1cc(C(=O)N[C@H]2CNCC[C@H]2O)cc2nc(-c3cc4ccc5nc4n3CCCCCCC(C)(C)C(=O)N[C@@H]5C)n(C)c12 [Example 295, ~{N}-[(3~{S},4~{R})-4-hydroxy-3-piperidyl]-7-methoxy-1-methyl-2-[(11~{R})-8,8,11-trimethyl-9-oxo-1,10,19-triazatricyclo[10.5.2.0^{15,18}]nonadeca-12(19),13,15(18),16-tetraen-17-yl]benzimidazole-5-carboxamide] | 3350
17 | COc1cc(C(=O)N[C@@H]2CNCCC2(F)F)cc2nc(-c3cc4ccc5nc4n3CCCCCCC(C)(C)C(=O)N[C@@H]5C)n(C)c12 [Example 296, ~{N}-[(3~{R})-4,4-difluoro-3-piperidyl]-7-methoxy-1-methyl-2-[(11~{R})-8,8,11-trimethyl-9-oxo-1,10,19-triazatricyclo[10.5.2.0^{15,18}]nonadeca-12(19),13,15(18),16-tetraen-17-yl]benzimidazole-5-carboxamide] | 23700
18 | COc1cc(C(=O)N2CC[C@@H](OC(F)F)[C@@H](N)C2)cc2nc(-c3cc4ccc5nc4n3CCCCCCC(C)(C)C(=O)N[C@@H]5C)n(C)c12 [Example 297, (11~{R})-17-[5-[(3~{S},4~{R})-3-amino-4-(difluoromethoxy)piperidine-1-carbonyl]-7-methoxy-1-methyl-benzimidazol-2-yl]-8,8,11-trimethyl-1,10,19-triazatricyclo[10.5.2.0^{15,18}]nonadeca-12(19),13,15(18),16-tetraen-9-one] | 129
19 | COc1cc(C(=O)N2CCC[C@@H](N)C2)cc2nc(-c3cc4ccc5nc4n3CCOCCOCCOC5C)n(C)c12 (stereo partly drawn) [Example 298, [(3~{R})-3-amino-1-piperidyl]-[7-methoxy-1-methyl-2-(11-methyl-4,7,10-trioxa-1,19-diazatricyclo[10.5.2.0^{15,18}]nonadeca-12(19),13,15(18),16-tetraen-17-yl)benzimidazol-5-yl]methanone] | 914
20 | COc1cc(C(=O)N2C[C@H](N)CCN2C)cc2nc(-c3cc4ccc5nc4n3CCCCCCC(C)(C)C(=O)N[C@@H]5C)n(C)c12 [Example 299, (11~{R})-17-[5-[(5~{R})-5-amino-2-methyl-hexahydropyridazine-1-carbonyl]-7-methoxy-1-methyl-benzimidazol-2-yl]-8,8,11-trimethyl-1,10,19-triazatricyclo[10.5.2.0^{15,18}]nonadeca-12(19),13,15(18),16-tetraen-9-one] | 58
21 | COc1cc(C(=O)N2CCC[C@@H](N)C2)cc2nc(-c3cc4ccc5nc4n3CCCCCCC(=O)N[C@@H]5C)c(C)n12 [Example 300, (10~{R})-16-[7-[(3~{R})-3-aminopiperidine-1-carbonyl]-5-methoxy-3-methyl-imidazo[1,2-a]pyridin-2-yl]-10-methyl-1,9,18-triazatricyclo[9.5.2.0^{14,17}]octadeca-11(18),12,14(17),15-tetraen-8-one] | 50
